# pIC50: −log10 of the molar value.
# Tested on: IL-12 production in human PBMC or THP-1 cells
# Experiment: Human in vitro assay: inhibition of IL-12 production in human PBMC or THP-1 cells (ELISA)
# Assay type: cell-based
# Conditions: THP-1, human PBMC or THP-1 cells, IFNγ plus LPS or SAC stimulation, representative in vitro data
# Excerpt: The biological activities of the compounds of the invention can be evaluated by a number of cell-based assays. One of such assays can be conducted using cells from human peripheral blood mononuclear cells (PBMC) or human monocytic cell line (THP-1). The cells are stimulated with a combination of human interferon-γ (IFNγ) and lipopolysaccharide or a combination of IFNγ and Staphylococcus aureus Cowan I in the presence of a test compound. The level of inhibition of IL-12 production can be measured by determining the amount of p70 by using a sandwich ELISA assay with anti-human IL-12 antibodies. IC50 of the test compound can then be determined. Specifically, PBMC or THP-1 cells are incubated with the test compound. Cell viability was assessed using the bioreduction of MTS [3-(4,5-dimethylthiazol-2-yl)-5-(3-carboxymethoxyphenyl)-2-(4-sulfophenyl)-2H-tetrazolium] (Promega, Madison, Wis.).
# Reagents. Staphylococcus aureus Cowan I (SAC) was obtained from Calbiochem (La Jolla, Calif.), and lipopolysaccharide (LPS, Serratia marscencens) was obtained from Sigma (St Louis, Mo.). Human and mouse recombinant IFNγ were purchased from Boehringer Mannheim (Mannheim, Germany) and Pharmingen (San Diego, Calif.), respectively.
# Human In Vitro Assay. Human PBMC were isolated by centrifugation using Ficoll-Paque (Pharmacia Biotech, Uppsala, Sweden) and prepared in RPMI medium supplemented with 10% fetal calf serum (FCS), 100 U/mL penicillin, and 100 μg/mL streptomycin. PBMC were plated in wells of a 96-well plate at a concentration of 5×10^5 cells/well, and primed by adding IFNγ (30 U/mL) for 22 h and stimulated by adding LPS (1 μg/mL), or by adding IFNγ (100 U/mL) and then stimulated by adding SAC (0.01%). A test pyrimidine compound was dissolved in DMSO, and added to wells of the 96-well plate. The final DMSO concentration was adjusted to 0.25% in all cultures, including the compound-free control. Human THP-1 cells were plated in wells, primed by adding IFNγ (100 U/mL) for 22 h and stimulated by adding SAC (0.025%) in the presence of different concentrations of the pyrimidine compound. Cell-free supernatants were taken 18 h later for measurement of cytokines. Cell viability was assessed using the bioreduction of MTS. Cell survival was estimated by determining the ratio of the absorbance in compound-treated groups versus compound-free control.
# The supernatant was assayed for the amount of IL-12p40, IL-12p70, or IL-10 by using a sandwich ELISA with anti-human antibodies, i.e., a Human IL-12 p40 ELISA kit from R&D Systems (Berkeley, Calif.), and a Human IL-12 p70 or IL-10 ELISA kit from Endogen (Cambridge, Mass.). Assays were based on the manufacturer's instructions.
# The biological activities of compounds were tested on human PBMC or THP-1 cells.
row,SMILES,pIC50
1,"CCN(CC)c1cc(N/N=C/c2cccc(C)c2)nc(OCCN2CCOCC2)n1 [Compound 30, Diethyl-[6-[N′-(3-methyl-benzylidene)-hydrazino]-2-(2-morpholin-4-yl-ethoxy)-pyrimidin-4-yl]-amine]",6.06
2,"Cc1cccc(/C=N/Nc2nc(CCCOC(=O)Nc3ccc(C(F)(F)F)cc3)cc(N(C)C)n2)c1 [Compound 29, (4-Trifluoromethyl-phenyl)-carbamic acid 3-{6-dimethylamino-2-[N′-(3-methyl-benzylidene)-hydrazino]-pyrimidin-4-yl}-propyl ester]",5.00
3,"O=C(Nc1ccc2c(c1)CCC2)Nc1cccc(-c2ccncc2)n1 [Compound 100, 1-[2,4′]Bipyridinyl-6-yl-3-indan-5-yl-urea]",6.83
4,"COCc1cc(N/N=C/c2cccc(C)c2)nc(-c2ccncc2)n1 [Compound 142, (E)-4-(methoxymethyl)-6-(2-(3-methylbenzylidene)hydrazinyl)-2-(pyridin-4-yl)pyrimidine]",7.10
5,"Cc1[nH]c2ccc(NC(=O)c3cc(OCCN4CCOCC4)cc(-c4ccncc4)n3)cc2c1C [Compound 101, 4-(2-Morpholin-4-yl-ethoxy)-[2,4′]bipyridinyl-6-carboxylic acid (2,3-dimethyl-1H-indol-5-yl)-amide]",7.70
6,"CSc1nc(NC(=O)Nc2cccc(C)c2)nc(-c2ccncc2)n1 [Compound 144, 1-(4-(methylthio)-6-(pyridin-4-yl)-1,3,5-triazin-2-yl)-3-m-tolylurea]",6.89
7,"COc1nc(N/N=C/c2c[nH]c3c(C)cccc23)nc(N(C(C)C)C(C)C)n1 [Compound 3, Diisopropyl-{4-methoxy-6-[N′-(7-methyl-1H-indol-3-ylmethylene)-hydrazino]-[1,3,5]triazin-2-yl}-amine]",5.11

# Reference: patent US7919487B2, “Heteroaryl compounds” (Synta Pharmaceuticals Corporation, priority 2004, dated 2011)
